The values that follow come from publication PMC2646632 (ACS chemical biology, 2008).

The subject of the assay is mouse SMN mRNA. The assay can be described thus: Real-time PCR of endogenous SMN mRNA in NSC34 cells. The assay is classed as cell-based. The note with it: trichostatin A at 100 nM. Background: In qPCR the cycle at which signal appears reflects the starting amount.

Turning to `Nc1nc(N)c2c(OCC3CCN(Cc4ccccc4F)CC3)cccc2n1` [D156844], the “Increase of SMN mRNA” value is on record as “two-fold”. On to `CC(/C=C/C(=O)NO)=C\[C@@H](C)C(=O)c1ccc(N(C)C)cc1` [trichostatin A], for which the “Increase of SMN mRNA” value was “two-fold”.
